Where “and” joins values, the source holds several entries; their conditions need not be identical. Equal entries are not always repeated. Entries after “also recorded” stand apart in the source; their conditions may differ. Structures can show the parent of a compound that is named as a salt.
Assays:
[1] = test system: debrisoquin hydroxylase (sparteine monooxygenase); conditions: Inaba et al 1985, cited from earlier work
[2] = test system: neuronal calcium channels; conditions: reportedly; Carpenter et al 1988; cited from earlier work
[3] = test system: N-methyl-D-aspartate (NMDA) receptors; conditions: reportedly; cited from earlier work
[4] = test system: sigma receptors; conditions: reportedly; cited from earlier work
[5] = test system: debrisoquin hydroxylase; assay: Urinary DM/DR ratio with other antioxidants in specific patients (Example 5)
Description: The second method involves sampling body fluids to compare the concentrations of DM and its primary metabolite, dextrorphan (DR). Although blood concentrations can be directly evaluated by drawing blood samples if desired, an easier and painless approach is to analyze urine samples. Blood or urine samples can be processed using methods such as high performance liquid chromatography (HPLC), as described in Example 5. […] The height of each peak, or the area under each peak, will indicate the quantity of each compound in the blood or urine sample. The heights of the DM and DR peaks are then divided, to determine the DM/DR ratio. The ratio which occurs after administration of a candidate antioxidant drug is compared to the DM/DR ratio in the same patient under control conditions (i.e., before administration of any antioxidant).
Preliminary Analysis of Other Antioxidants
To further evaluate that possibility, the Applicant arranged for chemical analyses of urine samples, using HPLC, in the labs of an independent investigator.

[6] = test system: liver cell preparations; conditions: Broly et al 1989; cited from earlier work
[7] = test system: debrisoquin hydroxylase; assay: Urinary DM/DR ratio after oral dextromethorphan without and with quinidine (Example 1); type: in vivo, human; conditions: 150 mg quinidine + 60 mg DM
Description: Since the research that led to this invention was done by a neurologist who was initially interested in finding out whether DM might be able to retard the progress of ALS, the initial studies were done on patients suffering from ALS, most of whom are adults more than 50 years old.
Six patients suffering from ALS were administered orally a single 60 mg dextromethorphan dose. Several hours later, a urine sample was collected, and the urine concentrations of dextromethorphan (DM) and dextrorphan (DR) were measured as described below to determine a DM/DR ratio. […] In a different week, 60 mg of DM and 150 mg of quinidine were orally administered to the same patients, and urinary DM and DR levels and DM/DR ratios were determined again.
DM and DR urinary levels without quinidine were determined by adding […] of thebaine as an internal standard to 1 mL of urine. To this was added 2000 units of beta-glucuronidase in 1 mL of acetate buffer (0.1M, pH 5.0). The mixture was incubated for 18 hours at 37° C. and then extracted by adding 1 mL of phosphate buffer (pH 12, 0.10M) and 7 mL of n-butanol/hexane (10:90 v/v). After mixing and centrifugation, the organic layer was transferred to a clean tube and acidified with 400 uL of 0.01 N HCL. 20 microliters (uL) of aqueous phase was injected into a high performance liquid chromatography (HPLC) system. The HPLC used a phenyl column equilibrated with a mobile phase of acetonitrile:water (51:49, v/v) containing 10 mM KHPO4, 10 mM hexane sulfonic acid, pH 4.0 (flow rate 1.2 mL/min). Detection of thebaine, dextromethorphan and dextrorphan was achieved by fluorescence (Kratos FS-980 Fluorometer) with an excitation wavelength of 228 nm and no emission cutoff filter.
A gas chromatograph/mass spectroscopy (gc/ms) assay was employed for determining dextromethorphan and dextrorphan levels in the presence of quinidine. Briefly, 0.5 ml urine samples were spiked with 500 nanograms (ng) of dimethacrine. The urine pH was adjusted to 5.0 with 0.1M acetate buffer (usually about 1.0 ml), and beta-glucuronidase was added (2000 units/ml urine). […]

[8] = test system: ALS patients; conditions: DM up to about 300 mg/day or higher; quinidine in prolonged QT interval; cited from earlier work
[9] = Plasma concentration of DM 10-12 hours after oral dosing, without and with quinidine (Examples 2 and 3); type: in vivo, human; conditions: effect of quinidine on plasma DM, words
Description: Plasma Concentrations of DM
Five patients were orally administered 120 mg of DM, with no co-administration of quinidine. Between 10 and 12 hours later, blood was sampled, blood plasma was isolated by centrifugation, and the plasma was analyzed to determine the DM concentration using the thebaine/HPLC method.
During a different week, the same patients were orally administered 60 mg of DM (half the control dosage) and 150 mg of quinidine. Between 10 and 12 hours later, blood was sampled and the plasma was analyzed for DM using thebaine/HPLC.
Additional studies were undertaken using a range of dosages of DM to establish a dose-response curve that correlates the quantity of DM orally administered to a patient with blood plasma concentrations 10 to 12 hours later (determined as described in Example 2). All patients received 150 mg of quinidine daily. The results of those studies are shown in graphical form in FIG. 2, with mean values shown as open squares and standard deviation ranges shown by vertical bars. The ascending line through the median values is a linear approximation; a curve based on more extensive data would probably show a horizontal asymptote.

Structure (SMILES) | In vitro activity in inhibiting debrisoquin hydroxylase [1] | also measured
COCCc1ccc(OCC(O)CNC(C)C)cc1 (racemic) [metaprolol] | significant in vitro activity | 
CC[C@H]1[C@@H]2C[C@H]3[C@@H]4N(C)c5ccccc5[C@]45C[C@@H]([C@H]2[C@H]5O)N3[C@@H]1O [ajmaline] | significant in vitro activity; also recorded: relatively potent | 
CN1CC[C@@]23CCCC[C@@H]2[C@@H]1Cc1ccc(O)cc13 [dextrorphan] |  | Activity at neuronal calcium channels [2]: calcium channel antagonists; Activity at NMDA receptors [3]: NMDA antagonists; Activity at sigma receptors [4]: sigma agonists
O=c1[nH]c2ccccc2n1CCCN1CCC(n2c(=O)[nH]c3cc(Cl)ccc32)CC1 [domperidone] | significant in vitro activity | 
CNCCC(Oc1ccc(C(F)(F)F)cc1)c1ccccc1 (stereo not drawn) [fluoxetine] |  | Effect on DM concentrations in the blood / debrisoquin hydroxylase oxidative activity ([5]; ALS patient taking fluoxetine, research by the Applicant): can suppress the oxidative activity of the debrisoquin hydroxylase enzyme, albeit at a potency substantially below that of quinidine; also recorded: effective in increasing DM concentrations in the blood
O=C(CCCN1CCC(O)(c2ccc(Cl)cc2)CC1)c1ccc(F)cc1 [haloperidol] | significant in vitro activity; also recorded: relatively potent | 
CC(CCc1ccccc1)NCC(O)c1ccc(O)c(C(N)=O)c1 (stereo not drawn) [labetalol] | significant in vitro activity | 
CN1[C@@H](CC(=O)c2ccccc2)CCC[C@H]1C[C@H](O)c1ccccc1 [lobeline] | significant in vitro activity; also recorded: relatively potent | 
Cc1cccc(C)c1OCC(C)N (stereo not drawn) [mexiletine] | significant in vitro activity | 
CNCCC=C1c2ccccc2CCc2ccccc21 [nortriptyline] | significant in vitro activity | 
C=CCOc1ccccc1OCC(O)CNC(C)C (stereo not drawn) [oxprenolol] | significant in vitro activity | 
COc1ccc(Cc2nccc3cc(OC)c(OC)cc23)cc1OC [papaverine] | significant in vitro activity | 
NC(=O)C1(N2CCCCC2)CCN(CCCC(=O)c2ccc(F)cc2)CC1 [pipamperone] | significant in vitro activity; also recorded: relatively potent | 
CC(C)NCC(O)COc1cccc2ccccc12 (stereo not drawn) [propranolol] | significant in vitro activity | 
C=C[C@H]1C[N@@]2CC[C@H]1C[C@@H]2[C@@H](O)c1ccnc2ccc(OC)cc12 [quinidine] | most powerful of these inhibitors; also recorded: most potent inhibitor of the sparteine monooxygenase enzyme; also recorded: potent inhibitor of the debrisoquin hydroxylase enzyme | DM oxidation / metabolism in liver cell preparations [6]: suppresses DM oxidation in liver cell preparations; Increase of DM/DR ratio, all test subjects ([7]; all test subjects): at least 2 orders of magnitude; Increase of DM/DR ratio, usually ([7]; usual case): more than 3 orders of magnitude; Adverse effects (general knowledge) [8]: cardiac arrest (which can be fatal); DM plasma level, with or without quinidine [9]: major increase in the concentration of DM in the blood plasma; also recorded: pronounced effect in increasing and stabilizing the quantity of DM circulating in the blood; also recorded: highly effective in increasing DM concentrations; Ki ([1]; in vitro, read-out: Ki (Michaelis-Menton inhibition)): 60 nM
C=C[C@H]1C[N@@]2CC[C@H]1C[C@H]2[C@H](O)c1ccnc2ccc(OC)cc12 [quinine sulfate] |  | DM/DR ratio (antioxidant) ([5]; urine, HPLC, antioxidant in brackets, preliminary, one value per patient): 0.09 and 0.05
C=C[C@H]1C[N@@]2CC[C@H]1C[C@H]2[C@H](O)c1ccnc2ccc(OC)cc12 [quinine] | significant in vitro activity | 
CC(C)(C)NC[C@H](O)COc1nsnc1N1CCOCC1 [timolol] | significant in vitro activity | 
COC(=O)[C@@H]1[C@H]2C[C@H]3c4[nH]c5ccccc5c4CCN3C[C@@H]2CC[C@@H]1O [yohimbine] | significant in vitro activity; also recorded: relatively potent | 
